From US11224561B2, “Skin cleansing composition” (KAO CORPORATION, priority 2017, dated 2022)

Key:
[1] = Detergency against keratotic plug during cleansing: penetration of the sample into keratotic plugs; parameters: species or system human; settings: samples of Table 1, contact for 1 minute
Experimental: Keratotic plugs in the nasal region were removed with “Biore Nose Pack (manufactured by Kao Corporation)”, the resulting keratotic plugs on the pack were gently taken out with tweezers. […] Consequently, the sample entered into the gap between the slide glass and the cover glass by capillary phenomenon and was brought into contact with the keratotic plugs. The contact of the keratotic plugs and the sample was recorded with a digital microscope (VHX-5000, manufactured by Keyence Corporation, magnification: 150×), and the penetration of the sample into the keratotic plugs and the collapse state of the keratotic plugs were evaluated after one minute from the contact of the keratotic plugs with the sample. The results of each evaluation are shown in the columns “Keratotic plug detergency (penetration)” and “Keratotic plug detergency (during cleansing)” in Tables. The measurements were performed at 25° C. The penetration was relatively evaluated by criteria with 11 ratings from the rating 1 “the sample hardly penetrated into the keratotic plug” to the rating 11 “the sample penetrated to the center of the keratotic plug”. The collapsibility by the detergency against keratotic plug was relatively evaluated by criteria with 11 ratings from the rating 1 “almost no change is observed in the external appearance of the keratotic plug” to the rating 11 “peeling or separation is observed in the area from the surface layer to the central portion of the keratotic plug (the initial appearance of the keratotic plug is not retained)”.

[2] = tested on: insoluble protein (seine protein); experiment: Effect of suppressing protein aggregation (precipitation of insoluble protein); settings: sample of Table 1
Experimental: Thirty milliliters of a sample and 0.06 g of an insoluble protein (seine protein) were placed in a 35-mL standard glass bottle, and the concentration of the insoluble protein was adjusted to 0.2 mass % (test sample). Separately, a standard sample was prepared by using water instead of the sample and adjusting the concentration of the insoluble protein to 0.2 mass %. Subsequently, the standard glass bottles were sufficiently shaken and stirred up and down (shake width: 15 cm, 20 times at a rate of 5 times for 3 seconds) in a thermostatic chamber of 25° C. and were left to stand for 3 minutes. The precipitation state of the insoluble protein was then visually verified, and the ratio of the amount of the precipitated standard sample to the amount of the precipitated test sample (the height of the precipitate in each standard glass bottle was measured as the precipitation amount), (precipitation amount of standard sample)/(precipitation amount of test sample), was calculated. A higher ratio indicates a higher effect of suppressing protein aggregation.

[3] = Detergency against keratotic plug during cleansing: collapse state of keratotic plugs; parameters: species or system human; settings: samples of Table 1, contact for 1 minute
Experimental: Keratotic plugs in the nasal region were removed with “Biore Nose Pack (manufactured by Kao Corporation)”, the resulting keratotic plugs on the pack were gently taken out with tweezers.
The resulting keratotic plugs were placed on a slide glass and were covered with a cover glass, and 0.05 mL of a sample was dropwise added to an edge of the cover glass. Consequently, the sample entered into the gap between the slide glass and the cover glass by capillary phenomenon and was brought into contact with the keratotic plugs. The contact of the keratotic plugs and the sample was recorded with a digital microscope (VHX-5000, manufactured by Keyence Corporation, magnification: 150×), and the penetration of the sample into the keratotic plugs and the collapse state of the keratotic plugs were evaluated after one minute from the contact of the keratotic plugs with the sample. The results of each evaluation are shown in the columns “Keratotic plug detergency (penetration)” and “Keratotic plug detergency (during cleansing)” in Tables. The measurements were performed at 25° C.
The penetration was relatively evaluated by criteria with 11 ratings from the rating 1 “the sample hardly penetrated into the keratotic plug” to the rating 11 “the sample penetrated to the center of the keratotic plug”. The collapsibility by the detergency against keratotic plug was relatively evaluated by criteria with 11 ratings from the rating 1 “almost no change is observed in the external appearance of the keratotic plug” to the rating 11 “peeling or separation is observed in the area from the surface layer to the central portion of the keratotic plug (the initial appearance of the keratotic plug is not retained)”.

[4] = Detergency against keratotic plug after washing with water: collapse state; parameters: species or system human; settings: samples of Table 1, washing with water
Source text: The penetration was relatively evaluated by criteria with 11 ratings from the rating 1 “the sample hardly penetrated into the keratotic plug” to the rating 11 “the sample penetrated to the center of the keratotic plug”. The collapsibility by the detergency against keratotic plug was relatively evaluated by criteria with 11 ratings from the rating 1 “almost no change is observed in the external appearance of the keratotic plug” to the rating 11 “peeling or separation is observed in the area from the surface layer to the central portion of the keratotic plug (the initial appearance of the keratotic plug is not retained)”. After one minute from the contact of the keratotic plugs with the sample, Kimwipes (registered trademark) was brought into contact with an edge of the cover glass to remove the sample under the cover glass. […] The results of the evaluation are shown in the column “Keratotic plug detergency (during washing with water)” in Table. The measurements were performed at 25° C.

[5] = at 25° C.; cited from earlier work

Which results are given for “sodium polyoxyethylene (2) lauryl ether sulfate [POE (2) sodium lauryl sulfate]”?
penetration of the sample into keratotic plugs (in words) [1]: hardly penetrated into the keratotic plugs; action on proteins (in words) [2]: the action on proteins was strong to dissolve the proteins; collapse of keratotic plugs in contact with the sample (in words) [3]: the collapse of the keratotic plugs did not progress

Which “penetration of the sample into keratotic plugs (in words)” value (“penetration” below) [1] does the source give for `O=P([O-])([O-])[O-].[Na+].[Na+].[Na+]` [trisodium phosphate] here?
Its value is “hardly penetrated into keratotic plugs”.

And the “collapse of keratotic plugs in contact with the sample (in words)” value (shortened to “collapse of keratotic plugs in contact”) [3]?
The value was “the collapse of the keratotic plugs did not progress”.

What about the “swelling of sample-treated keratotic plugs on contact with water (in words)” value (from here on “swelling”) [4] of the same compound?
The value was “did not swell even when contacted with water”.

With `O=C([O-])O.[Na+]` [sodium hydrogen carbonate] as the compound, how does the “penetration” value [1] read?
Its value is “hardly penetrated into keratotic plugs”.

And the “collapse of keratotic plugs in contact” value [3]?
Its value is “the collapse of the keratotic plugs did not progress”.

And the “swelling” value [4]?
Its value is “did not swell even when contacted with water”.

What does the source list for `CC(N)(CO)CO` [AMPD, 2-amino-2-methyl-1,3-propanediol]?
penetration of the sample into keratotic plugs (in words) [1]: penetrated into keratotic plugs; swelling of sample-treated keratotic plugs on contact with water (in words) [4]: swelled when contacted with water

With `CC(C)(N)CO` [Component (X3)] as the compound, how does the pKa [5] read?
The pKa was 9.72.

With `O=P([O-])([O-])O.[Na+].[Na+]` [disodium hydrogen phosphate] as the compound, how does the “penetration” value [1] read?
The value was “hardly penetrated into keratotic plugs”.

What about the “collapse of keratotic plugs in contact” value [3] of the same compound?
The value was “the collapse of the keratotic plugs did not progress”.

What about the “swelling” value [4] of the same compound?
The value was “did not swell even when contacted with water”.
